The structures appear in SMILES notation.

For the first test, the target named is T1, oxytocin receptors (Rattus norvegicus, UniProt P70536).
T1 construct: The uteri are dissected out, cleaned of fat and connective tissues; from tissue; host or cells: uterus of DES-treated female Sprague-Dawley rats
T1 sequence (P70536 1-388): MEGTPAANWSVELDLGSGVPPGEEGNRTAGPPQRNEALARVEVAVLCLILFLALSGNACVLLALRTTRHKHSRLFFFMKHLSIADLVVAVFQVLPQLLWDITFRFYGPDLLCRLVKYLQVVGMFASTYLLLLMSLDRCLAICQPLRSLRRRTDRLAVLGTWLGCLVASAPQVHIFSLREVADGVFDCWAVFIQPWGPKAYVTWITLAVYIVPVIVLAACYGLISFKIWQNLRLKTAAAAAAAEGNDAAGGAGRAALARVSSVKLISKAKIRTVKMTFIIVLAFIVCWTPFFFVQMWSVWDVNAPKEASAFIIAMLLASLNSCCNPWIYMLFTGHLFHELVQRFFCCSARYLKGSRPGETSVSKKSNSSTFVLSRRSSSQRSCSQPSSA
The experiment in a line: Oxytocin Receptor Binding. To be noted: 1.0 nM [3H]oxytocin. The method, then: Oxytocin Receptor Binding
Female Sprague-Dawley rats weighing approximately 200-250 g are injected intramuscularly (i.m.) with 0.3 mg/kg of body weight of diethylstilbestrol (DES). The rats are sacrificed 18 hours later under pentobarbital anesthesia. The uteri are dissected out, cleaned of fat and connective tissues and rinsed in 50 ml of normal saline. The tissue pooled from six rats is homogenized in 50 ml of […] Tris.HCl, containing 0.5 mM dithiothreitol and 1.0 mM EDTA, adjusted to pH 7.4, using a polytron at setting 6 with three passes of 10 sec each. The homogenate is passed through two (2) layers of cheesecloth and the filtrate centrifuged at 1000× g for 10 min. The clear supernatant is removed and recentrifuged at 165,000× g for 30 min. The resulting pellet containing the oxytocin receptors is resuspended in 50.0 mM Tris.HCl containing 5.0 mM MgCl2 at pH 7.4, to give a protein concentration of 2.5 mg/ml of tissue suspension. This preparation is used in subsequent binding assays with [^3 H]Oxytocin.
Binding of 3,5-[^3 H]Oxytocin ([^3 H]OT) to its receptors is done in microtiter plates using [^3 H]OT, at various concentrations, in an assay buffer of 50.0 mM Tris.HCl, pH 7.4 and containing 5.0 mM MgCl2, and a mixture of protease inhibitors: BSA, 0.1 mg; aprotinin, 1.0 mg; 1,10-phenanthroline, 2.0 mg; […], 10.0 mg; and PMSF, 0.3 mg per 100 ml of buffer solution. Non-specific binding is determined in the presence of 1.0 uM unlabeled OT. The binding reaction is terminated after 60 min , at 22° C. by rapid filtration through glass fiber filters using a Brandel® cell harvester (Biomedical Research and Development Laboratories, Inc., Gaithersburg, Md.). Competition experiments are conducted at equilibrium using 1.0 nM [^3 H]OT and varying the concentration of the displacing agents. The concentrations of agent displacing 50% of [^3 H]OT at its sites (IC50) are calculated by a computer assisted LUNDON-2 program (LUNDON SOFTWARE INC., Ohio, USA).
Turning to `Nc1ccc(C(=O)N2Cc3cccn3Cc3ccccc32)c(Cl)c1` [Example 416, 10,11-Dihydro-10-(2-chloro-4-aminobenzoyl)-5H-pyrrolo[2,1-c][1,4]benzodiazepine], the IC50 came to 7.4 µM. This lies in the single-digit micromolar range.

The same test, now with this note: dose 1 μM, [3H]oxytocin.
For the compound `O=C(Nc1ccc(C(=O)O)c(Cl)c1)c1cccc(F)c1` [Example 441, 4-[[3-fluorobenzoyl]amino]-2-chloro-benzoic acid], the inhibition at 1 µM came to 22%.

Staying with this test, now noted: dose 10 μM, [3H]oxytocin.
On to `Nc1ccc(C(=O)N2Cc3cccn3Cc3ccccc32)c(Cl)c1` [Example 416, 10,11-Dihydro-10-(2-chloro-4-aminobenzoyl)-5H-pyrrolo[2,1-c][1,4]benzodiazepine], for which testing at 10 µM gave an inhibition of 44.6%.

Take `Cc1ccc(F)cc1C(=O)Nc1ccc(C(=O)O)cc1` [Example 417, 4-[(5-Fluoro-2-methylbenzoyl)amino]benzoic acid]: the inhibition at 10 µM was determined as 21%.

`Cc1c(F)cccc1C(=O)Nc1ccc(C(=O)O)cc1` [Example 418, 4-[(3-fluoro-2-methylbenzoyl)amino]-benzoic acid] showed an inhibition at 10 µM of 39%.

The compound `Cc1ccc(F)cc1C(=O)Nc1ccc(C(=O)O)c(Cl)c1` [Example 419, 4-[(5-fluoro-2-methylbenzoyl)amino]-2-chlorobenzoic acid] returned an inhibition at 10 µM of 28%.

In turn, `Cc1c(F)cccc1C(=O)Nc1ccc(C(=O)O)c(Cl)c1` [Example 420] returned an inhibition at 10 µM of 16%.

`O=C(O)c1ccc(NC(=O)c2ccc(Cl)cc2Cl)cc1Cl` [Example 429, 4-[(2,4-Dichlorobenzoyl)amino]-2-chlorobenzoic acid] yielded an inhibition at 10 µM of 11%.

`Cc1ccccc1C(=O)Nc1ccc(C(=O)O)c(Cl)c1` [Example 430, 4-[(2-methylbenzoyl)amino]-2-chloro-benzoic acid]: testing at 10 µM gave an inhibition of 16%.

With `Cc1ccccc1C(=O)Nc1c(C)cc(C(=O)O)cc1C` [Example 431, 4-[(2-methylbenzoyl)amino]-3,5-di-methylbenzoic acid], testing at 10 µM gave an inhibition of 18%.

Regarding `Cc1cc(C(=O)O)cc(C)c1NC(=O)c1ccc(Cl)cc1Cl` [Example 432, 4-[(2,4-dichlorobenzoyl)amino]-3,5-dimethylbenzoic acid], at 10 µM the inhibition was 19%.

Compound `Cc1ccccc1C(=O)Nc1ccc(C(=O)O)cc1Cl` [Example 433, 4-[(2-methylbenzoyl)amino]-3-chloro-benzoic acid] yielded an inhibition at 10 µM of 12%.

As to `Cc1c(F)cccc1C(=O)Nc1ccc(C(=O)O)cc1Cl` [Example 435, 4-[(3-fluoro-2-methylbenzoyl)amino]-3-chlorobenzoic acid], the inhibition at 10 µM worked out at 10%.

`Cc1ccc(F)cc1C(=O)Nc1ccc(C(=O)O)cc1Cl` [Example 436, 4-[(5-fluoro-2-methylbenzoyl)amino]-3-chlorobenzoic acid] had an inhibition at 10 µM of 32%.

In turn, `CCOC(=O)c1ccc2n1Cc1ccccc1N(C(=O)c1ccc([N+](=O)[O-])cc1Cl)C2` [Example 443, Ethyl 10,11-dihydro-10-(2-chloro-4-nitrobenzoyl)-5H-pyrrolo[2,1-c][1,4]benzodiazepine-3-carboxylate] displayed an inhibition at 10 µM of 70%.

As for `CCOC(=O)c1ccc2n1Cc1ccccc1N(C(=O)c1ccc([N+](=O)[O-])c(C)c1)C2` [Example 444, ethyl 10,11-dihydro-10-(3-methyl-4-nitrobenzoyl)-5H-pyrrolo[2,1-c][1,4]-benzodiazepine-3-carboxylate], the inhibition at 10 µM amounted to 21%.

The compound `Cc1cc(C(=O)N2Cc3ccc(C(=O)C(Cl)(Cl)Cl)n3Cc3ccccc32)ccc1[N+](=O)[O-]` [Example 448] came in with an inhibition at 10 µM of 11%.

For `O=C(c1ccc([N+](=O)[O-])cc1)N1Cc2ccc(C(=O)C(Cl)(Cl)Cl)n2Cc2ccccc21` [Example 449, 10,11-dihydro-10-(4-nitrobenzoyl)-[3-(trichloroacetyl)]-5H-pyrazolo[2,1-c]-[1,4]benzodiazepine], the inhibition at 10 µM is 14%.

In the case of `O=C(c1ccc([N+](=O)[O-])cc1Cl)N1Cc2ccc(C(=O)C(Cl)(Cl)Cl)n2Cc2ccccc21` [Example 450, 10,11-dihydro-10-(2-chloro-4-nitro-benzoyl)-[3-(trichloroacetyl)]-5H-pyrrolo[2,1-c][1,4]benzodiazepine], 10 µM produced 22% inhibition.
